This note sets out measurements from US8343983B2, “Substituted pyrazolo-pyrimidine compounds” (ArQule, Inc., priority 2009, dated 2013).

The experiment relates to cancer cells. Kind of experiment: MTS assay: inhibition of cell growth (formazan absorbance at 492 nm after 72 hours with test compound). In kind it is cell-based. To be noted: inhibition class. The method, then:
Cells were maintained at 37° C., 5% CO2 in DMEM media supplemented with 1% fetal bovine serum, penicillin/streptomycin and fungizone (Invitrogen). Cells were seeded into 96-well tissue culture plates at 3000 per well and cultured at 37° C. for 18 hours. Test compounds were dissolved and diluted to 300× in DMSO then diluted 1:40 in DMEM. Cells were incubated with test compounds for 72 hours followed by incubation with tetrazolium compound (3-(4,5-dimethylthiazol-2-yl)-5-(3-carboxymethoxyphenyl)-2-(4-sulfophenyl)-2H-tetrazolium, inner salt; MTS) and the electron coupling reagent, phenazine methosulfate (PMS) for 4 hours. […] The ability of compounds to inhibit cell growth in this assay is correlated with the reduction of dehydrogenase enzyme activity found in metabolically active cells. The measurement of the absorbance of the formazan was assessed using an ENVISION™ (Perkin Elmer) microplate reader at 492 nm. The calculated IC50 value is the concentration of the test compound that causes a 50% decrease in the absorbance. […] A=>79% inhibition, B=>50 to 79% inhibition, C=<50% inhibition.

Setting [1] is: Homo sapiens, DLD-1 cells, read-out: DLD-1, MTS 72 hours at 10 uM.
[2] abbreviates: Homo sapiens, KATO III cells, read-out: KATO III, MTS 72 hours at 10 uM.
Setting [3] is: Homo sapiens, MDA-MB-231 cells, read-out: MDA-MB-231, MTS 72 hours at 10 uM.
Where [4] appears, read: Homo sapiens, NCI-H1299 cells, read-out: NCI-H1299, MTS 72 hours at 10 uM.
[5] abbreviates: Homo sapiens, PC-3 cells, read-out: PC-3, MTS 72 hours at 10 uM.
Setting [6] is: PACA-2 cells, read-out: PACA-2, MTS 72 hours at 10 uM.

Molecules are shown by their SMILES. Read-outs that look alike come from different tables or passages of the source.

Regarding `COc1ccc(CN2CCc3n[nH]c4nc(Nc5ccc(N6CCN(C(=O)OCc7ccccc7)CC6)cc5)nc2c34)cc1` [Compound 119, benzyl 4-(4-{[6-(4-methoxybenzyl)-2,6,7,8-tetrahydro-1,2,3,5,6-pentaazaacenaphthylen-4-yl]amino}phenyl)piperazine-1-carboxylate], the inhibition at 10 µM is, setting by setting: under setting [1], more than 79%; under setting [2], more than 79%; under setting [3], more than 79%; under setting [4], 50 to 79%; under setting [5], 50 to 79%; under setting [6], 50 to 79%.

On to `CN1CCCC1CCNc1nc2c3c(n[nH]c3n1)CCN2Cc1ccccc1` (stereo not drawn) [Compound 41, 6-benzyl-N-[2-(1-methylpyrrolidin-2-yl)ethyl]-2,6,7,8-tetrahydro-1,2,3,5,6-pentaazaacenaphthylen-4-amine], for which the inhibition at 10 µM by setting is: under setting [1], less than 50%; under setting [2], less than 50%; under setting [3], 50 to 79%; under setting [4], less than 50%; under setting [5], less than 50%; under setting [6], less than 50%.

As for `CC(C)CNC(=O)C1CN(Cc2ccccc2)c2nc(NCc3ccccc3)nc3[nH]nc1c23` (stereo not drawn) [Compound 236, 6-benzyl-4-(benzylamino)-N-(2-methylpropyl)-2,6,7,8-tetrahydro-1,2,3,5,6-pentaazaacenaphthylene-8-carboxamide], the inhibition at 10 µM under setting [1] was less than 50%; the inhibition at 10 µM under setting [2] is less than 50%; the inhibition at 10 µM under setting [3] is less than 50%; the inhibition at 10 µM under setting [4] is less than 50%; the inhibition at 10 µM under setting [5] was less than 50%; the inhibition at 10 µM under setting [6] was less than 50%.

Take `COc1ccc(CN2CCCc3n[nH]c4nc(N5CCOCC5)nc2c34)cc1` [Compound 242, 6-(4-methoxybenzyl)-4-morpholin-4-yl-6,7,8,9-tetrahydro-2H-1,2,3,5,6-pentaazabenzo[cd]azulene]: the inhibition at 10 µM under setting [1] is more than 79%; the inhibition at 10 µM under setting [2] is less than 50%; the inhibition at 10 µM under setting [3] is less than 50%; the inhibition at 10 µM under setting [4] is less than 50%; the inhibition at 10 µM under setting [5] was less than 50%; the inhibition at 10 µM under setting [6] was in the range of 50 to 79%.

For `COc1ccc(CN2CCc3n[nH]c4nc(NC5Cc6ccccc6C5)nc2c34)cc1` [Compound 106, N-(2,3-dihydro-1H-inden-2-yl)-6-(4-methoxybenzyl)-2,6,7,8-tetrahydro-1,2,3,5,6-pentaazaacenaphthylen-4-amine], the inhibition at 10 µM runs as follows: under setting [1], more than 79%; under setting [2], more than 79%; under setting [3], less than 50%; under setting [4], 50 to 79%; under setting [5], less than 50%; under setting [6], 50 to 79%.

For the compound `c1cc(N2CCN(c3nc4c5c(n[nH]c5n3)CCN4)CC2)ccn1` [Compound 122, 4-(4-pyridin-4-ylpiperazin-1-yl)-2,6,7,8-tetrahydro-1,2,3,5,6-pentaazaacenaphthylene], the inhibition at 10 µM is, setting by setting: under setting [1], less than 50%; under setting [2], less than 50%; under setting [3], less than 50%; under setting [4], less than 50%; under setting [5], less than 50%; under setting [6], less than 50%.

Regarding `Clc1cccc(CCNc2nc3c4c(n[nH]c4n2)CCN3Cc2ccccc2)c1` [Compound 12, 6-benzyl-N-[2-(3-chlorophenyl)ethyl]-2,6,7,8-tetrahydro-1,2,3,5,6-pentaazaacenaphthylen-4-amine], the inhibition at 10 µM by setting is: under setting [1], 50 to 79%; under setting [2], 50 to 79%; under setting [3], less than 50%; under setting [4], 50 to 79%; under setting [5], less than 50%; under setting [6], less than 50%.
